Measured values: patent EP1500662A2, “Stabilizing peptides” (CORNELL RESEARCH FOUNDATION, INC., priority 2003, dated 2005)

Assays:
Format in all cases: cell-based
[1] = test system: HIV-1 DJ258
Experimental: (§1) PBMC Infectivity Assay. PBMC were isolated from healthy blood donors by Ficoll-Hypaque centrifugation and then stimulated for 2-3 days with phytohemagglutinin (5 µg/ml) and interleukin-2 (100 U/ml). The inhibition assay was performed essentially as described previously (Trkola, A., T. Ketas, V. N. KewalRamani, F. Endorf, J. M. Binley, H. Katinger, J. Robinson, D. R. Littman, and J. P. Moore. 1998. Neutralization sensitivity of human immunodeficiency virus type 1 primary isolates to antibodies and CD4-based reagents is independent of co-receptor usage. J. Virol. 72:1876-1885; Trkola, A., W. A. Paxton, S. P. Monard, J. A. Hoxie, M. A. Siani, D. A. Thompson, L. Wu, C. R. Mackay, R. Horuk, and J. P. Moore. 1998. Genetic subtype-independent inhibition of human immunodeficiency virus type 1 replication by CC and CXC chemokines. J. Virol. 72:396-404).
(§2) Briefly, the virus inoculum was adjusted to 400-1,000 TCID50/ml in assay medium (RPMI 1640, 10% FCS, 100 U of interleukin-2 per ml, glutamine, and peptides), and 50 µl aliquots were incubated with serial dilutions of the peptide inhibitors (50 µl) for 1 h at 37 °C. […] RBMC (4 x 10^5 in 100 µl of medium) were then added. The final concentration of virus in the cultures was 20-50 TCID50/well, corresponding to 100-250 TCID50/ml. […] The viral inocula in 50% tissue culture infectious doses (TCID50) were 400-1000/ml.

[2] = test system: HIV-1 CM.235
Experimental: as §1, §2

[3] = test system: HIV-1 94ZW103
Experimental: as §1, §2

[4] = test system: HIV-1 UG270
Experimental: as §1, §2

[5] = test system: HIV-1 Case C 7/86
Experimental: as §1, §2

[6] = test system: HIV-1 JFRL
Experimental: as §1, §2

[7] = test system: HIV-1 NL4-3
Experimental: as §1, §2

Substance Enfuvirtide has an IC50 [1] of 83 nM, an IC50 [2] of 79 nM and an IC50 [3] of 13 nM. It also gave an IC50 [4] of 257 nM, an IC50 [5] of 4 nM and an IC50 [6] of 9 nM. It also gave an IC50 [7] of 35 nM.
